Data: publication PMC7317746 (Environmental and Molecular Mutagenesis, 2020)
Like-named read-outs stand apart in the source and are kept apart here. Marks after values point to notes of the source that are not given here.

What was measured:
male Sprague Dawley rats [1] = assay: Pig‐a assay; assay type: in vivo, rat
[2] = system: bacteria, in vitro mammalian cell and in vivo transgenic rat assays; settings: ref IARC, 1990, Bergman et al., 1996; cited from earlier work
male Sprague Dawley rats [3] = assay: Micronucleus assay in peripheral blood erythrocytes; assay type: in vivo, rat
male Sprague Dawley rats [4] = settings: 1-Month Study, 1,000 mg/kg/day
peripheral blood cells = assay: Comet assay, peripheral blood cells; assay type: in vivo, rat
[5] = 3-Day Study, 500 mg/kg/day, Day -4 (pre-treatment)
[6] = 3-Day Study, 1,000 mg/kg/day Days 1-3, Day 15
[7] = 3-Day Study, 1,000 mg/kg/day Days 1-3, Day 30
[8] = 3-Day Study, 1,000 mg/kg/day Days 1-3, Day 45
[9] = 3-Day Study, 1,000 mg/kg/day, Day -4 (pre-treatment)
[10] = 3-Day Study, 2,000 mg/kg/day Days 1-3, Day 15
[11] = 3-Day Study, 2,000 mg/kg/day Days 1-3, Day 30
[12] = 3-Day Study, 2,000 mg/kg/day Days 1-3, Day 45
[13] = 3-Day Study, 2,000 mg/kg/day, Day -4 (pre-treatment)
[14] = 1-Month Study, 250 mg/kg/day, Day 4
[15] = 1-Month Study, 250 mg/kg/day, Day 29
[16] = 1-Month Study, 500 mg/kg/day, Day 4
[17] = 1-Month Study, 500 mg/kg/day, Day 29
[18] = 1-Month Study, 1,000 mg/kg/day, Day 29
[19] = 3-Day Study, 500 mg/kg/day, Day 4

CC(=O)Nc1ccc(O)cc1 [acetaminophen, Acetaminophen]
%RETs mean ± SD (male Sprague Dawley rats [1]; [5]): 3.3 ± 0.8% | Number of CD59‐Neg RBCs per 10^6 RBCs mean ± SD (male Sprague Dawley rats [1]; [5]): 0.4 ± 0.2 per 10^6 RBCs | Number of CD59‐Neg RETs per 10^6 RETs mean ± SD (male Sprague Dawley rats [1]; [5]): 2.0 ± 2.1 per 10^6 RETs | %RETs mean ± SD (male Sprague Dawley rats [1]; [6]): 4.8 ± 0.8 % | Number of CD59‐Neg RBCs per 10^6 RBCs mean ± SD (male Sprague Dawley rats [1]; [6]): 0.6 ± 0.2 per 10^6 RBCs | Number of CD59‐Neg RETs per 10^6 RETs mean ± SD (male Sprague Dawley rats [1]; [6]): 1.8 ± 2.4 per 10^6 RETs | %RETs mean ± SD (male Sprague Dawley rats [1]; [7]): 3.3 ± 0.4% | Number of CD59‐Neg RBCs per 10^6 RBCs mean ± SD (male Sprague Dawley rats [1]; [7]): 0.8 ± 0.4 per 10^6 RBCs | Number of CD59‐Neg RETs per 10^6 RETs mean ± SD (male Sprague Dawley rats [1]; [7]): 1.5 ± 1.8 per 10^6 RETs | %RETs mean ± SD (male Sprague Dawley rats [1]; [8]): 2.9 ± 0.3% | Number of CD59‐Neg RBCs per 10^6 RBCs mean ± SD (male Sprague Dawley rats [1]; [8]): 1.1 ± 1.1 per 10^6 RBCs | Number of CD59‐Neg RETs per 10^6 RETs mean ± SD (male Sprague Dawley rats [1]; [8]): 2.0 ± 2.1 per 10^6 RETs | %RETs mean ± SD (male Sprague Dawley rats [1]; [9]): 3.6 ± 0.8% | Number of CD59‐Neg RBCs per 10^6 RBCs mean ± SD (male Sprague Dawley rats [1]; [9]): 0.4 ± 0.2 per 10^6 RBCs | Number of CD59‐Neg RETs per 10^6 RETs mean ± SD (male Sprague Dawley rats [1]; [9]): 1.2 ± 0.5 per 10^6 RETs | %RETs mean ± SD (male Sprague Dawley rats [1]; [10]): 5.7 ± 0.4 % | Number of CD59‐Neg RBCs per 10^6 RBCs mean ± SD (male Sprague Dawley rats [1]; [10]): 2.9 ± 6.1 per 10^6 RBCs | Number of CD59‐Neg RETs per 10^6 RETs mean ± SD (male Sprague Dawley rats [1]; [10]): 11.3 ± 26.2 per 10^6 RETs | %RETs mean ± SD (male Sprague Dawley rats [1]; [11]): 3.3 ± 0.6% | Number of CD59‐Neg RBCs per 10^6 RBCs mean ± SD (male Sprague Dawley rats [1]; [11]): 32.4 ± 78.4 per 10^6 RBCs | Number of CD59‐Neg RETs per 10^6 RETs mean ± SD (male Sprague Dawley rats [1]; [11]): 40.3 ± 98.3 per 10^6 RETs | %RETs mean ± SD (male Sprague Dawley rats [1]; [12]): 2.4 ± 0.2 % | Number of CD59‐Neg RBCs per 10^6 RBCs mean ± SD (male Sprague Dawley rats [1]; [12]): 38.5 ± 92.8 per 10^6 RBCs | Number of CD59‐Neg RETs per 10^6 RETs mean ± SD (male Sprague Dawley rats [1]; [12]): 15.1 ± 36.2 per 10^6 RETs | %RETs mean ± SD (male Sprague Dawley rats [1]; [13]): 3.2 ± 0.8% | Number of CD59‐Neg RBCs per 10^6 RBCs mean ± SD (male Sprague Dawley rats [1]; [13]): 0.3 ± 0.1 per 10^6 RBCs | Number of CD59‐Neg RETs per 10^6 RETs mean ± SD (male Sprague Dawley rats [1]; [13]): 1.2 ± 0.6 per 10^6 RETs | Mutagenicity in the rat Pig‐a model (conclusion) (male Sprague Dawley rats [1]; 250-2,000 mg/kg/day, 3-Day, 2-Week and 1-Month Studies): not mutagenic | Mutagenicity [2]: nonmutagenic | %MN‐RETs mean ± SD (male Sprague Dawley rats [3]; [14]): 0.14 ± 0.03% | %RETs mean ± SD (male Sprague Dawley rats [3]; [14]): 2.89 ± 1.89% | %MN‐RETs mean ± SD (male Sprague Dawley rats [3]; [15]): 0.15 ± 0.05% | %RETs mean ± SD (male Sprague Dawley rats [3]; [15]): 1.32 ± 0.25% | %MN‐RETs mean ± SD (male Sprague Dawley rats [3]; [16]): 0.18 ± 0.07% | %RETs mean ± SD (male Sprague Dawley rats [3]; [16]): 1.80 ± 1.98% | %MN‐RETs mean ± SD (male Sprague Dawley rats [3]; [17]): 0.22 ± 0.04^ % | %RETs mean ± SD (male Sprague Dawley rats [3]; [17]): 1.03 ± 0.28% | %RETs mean ± SD (male Sprague Dawley rats [3]; 1-Month Study, 1,000 mg/kg/day, Day 4): 0.03 ± 0.02 % | %MN‐RETs mean ± SD (male Sprague Dawley rats [3]; [18]): 0.59 ± 0.23^ % | %RETs mean ± SD (male Sprague Dawley rats [3]; [18]): 1.48 ± 1.05% | %MN‐RETs mean ± SD (male Sprague Dawley rats [3]; [19]): 0.12 ± 0.05% | %RETs mean ± SD (male Sprague Dawley rats [3]; [19]): 0.89 ± 0.68% | %RETs mean ± SD (male Sprague Dawley rats [3]; 3-Day Study, 1,000 mg/kg/day, Day 4): 0.08 ± 0.08 % | %MN‐RETs mean ± SD (male Sprague Dawley rats [3]; 3-Day Study, 1,000 mg/kg/day, Day 4, only 1 animal analyzed): 0.21 ^a % | %RETs mean ± SD (male Sprague Dawley rats [3]; 3-Day Study, 2,000 mg/kg/day, Day 4): 0.03 ± 0.04 % | Micronucleus endpoint in peripheral blood RETs (conclusion) (male Sprague Dawley rats [3]; ≤1,000 mg/kg/day, up to 29 days): negative | Rats with minimal remnants of treatment‐related liver changes (male Sprague Dawley rats [4]; after 1-month recovery period): 2/6 | Rats with minimal to slight liver changes in the centrilobular region (male Sprague Dawley rats [4]; after 1 month): 9/16 | Rats with minimal to slight liver changes in the centrilobular region (male Sprague Dawley rats [4]; after 1 week): 5/5 | Blood % tail intensity mean ± SD (peripheral blood cells; [15]): 0.13 ± 0.08% | Blood % tail intensity mean ± SD (peripheral blood cells; [17]): 0.19 ± 0.10% | Blood % tail intensity mean ± SD (peripheral blood cells; [18]): 0.24 ± 0.15% | Blood % tail intensity mean ± SD (peripheral blood cells; 3-Day Study, 500 mg/kg/day, Day 3): 0.31 ± 0.11% | Blood % tail intensity mean ± SD (peripheral blood cells; 3-Day Study, 1,000 mg/kg/day, Day 3): 0.41 ± 0.12 % | Blood % tail intensity mean ± SD (peripheral blood cells; 3-Day Study, 2,000 mg/kg/day, Day 3): 0.34 ± 0.07% | Increase in % tail intensity in peripheral blood cells versus vehicle (peripheral blood cells; 3-Day Study, at 1,000 mg/kg/day, not considered biologically relevant): up to 1.6 fold
